Assay [1] deals with T1, Motilin receptor (Homo sapiens, UniProt O43193). The experiment in a line: In vitro effective concentration towards human motilin receptor. In kind it is functional.
For assay [2], the target named is T1, Motilin receptor. The assay is described as follows: In vitro binding affinity towards human motilin receptor.

T1 sequence (O43193 whole entry): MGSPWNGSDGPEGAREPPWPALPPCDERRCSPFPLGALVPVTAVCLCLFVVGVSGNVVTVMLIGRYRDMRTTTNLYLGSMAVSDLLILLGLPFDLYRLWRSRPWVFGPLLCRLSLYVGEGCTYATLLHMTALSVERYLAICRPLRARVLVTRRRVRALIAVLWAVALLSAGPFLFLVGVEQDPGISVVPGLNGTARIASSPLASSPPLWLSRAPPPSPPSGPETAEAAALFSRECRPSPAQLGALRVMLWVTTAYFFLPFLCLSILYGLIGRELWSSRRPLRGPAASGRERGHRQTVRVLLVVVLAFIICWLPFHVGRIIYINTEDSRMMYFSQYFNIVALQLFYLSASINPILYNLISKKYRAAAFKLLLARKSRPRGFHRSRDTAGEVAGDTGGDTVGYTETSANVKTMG

`NC(=O)[C@@H](CCc1ccccc1)NC(=O)[C@@H](CCc1ccccc1)NC(=O)C1CCC2(CCNCC2)n2c(=O)n(Cc3ccc4c(c3)OCO4)c(=O)n21` (stereo partly specified) yielded a concentration giving a half-maximal response (EC50) on Motilin receptor [1] of 7.3 nM. This compound had a Ki on Motilin receptor [2] of 2.7 nM.
On to `C[C@H](NC(=O)C1C=CC2(CCNCC2)n2c(=O)n(Cc3ccc4c(c3)OCO4)c(=O)n21)C(N)=O` (stereo partly specified), for which the EC50 on Motilin receptor [1] was above 10000 nM.
In the case of `CC[C@H](C)[C@H](NC(=O)[C@@H]1CCCN1C(=O)[C@@H](NC(=O)[C@@H](N)Cc1ccccc1)C(C)C)C(=O)N[C@@H](Cc1ccccc1)C(=O)N[C@H](C(=O)N[C@@H](Cc1ccc(O)cc1)C(=O)NCC(=O)N[C@@H](CCC(=O)O)C(=O)N[C@@H](CC(C)C)C(=O)N[C@@H](CCC(N)=O)C(=O)N[C@@H](CCCNC(=N)N)C(=O)N[C@@H](CCSC)C(=O)N[C@@H](CCC(N)=O)C(=O)N[C@@H](CCC(=O)O)C(=O)N[C@@H](CCCCN)C(=O)N[C@@H](CCC(=O)O)C(=O)N[C@@H](CCCNC(=N)N)C(=O)N[C@@H](CC(N)=O)C(=O)N[C@@H](CCCCN)C(=O)NCC(=O)N[C@@H](CCC(N)=O)C(=O)O)[C@@H](C)O` [MOTILIN], a half-maximal response on Motilin receptor [1] (EC50) required 0.15 nM. On Motilin receptor [2], this compound yielded a Ki of 3.1 nM.
Regarding `NC(=O)[C@H](Cc1ccccc1)NC(=O)C1C=CC2(CCNCC2)n2c(=O)n(Cc3ccc4c(c3)OCO4)c(=O)n21` (stereo partly specified), the 50% effective concentration (EC50) at Motilin receptor [1] was above 10000 nM.
The compound `COC(=O)[C@@H](CCc1ccccc1)NC(=O)C1C=CC2(CCNCC2)n2c(=O)n(Cc3ccc4c(c3)OCO4)c(=O)n21` (stereo partly specified) showed an EC50 on Motilin receptor [1] above 10000 nM. Also, the Ki on Motilin receptor [2] is above 10000 nM.
The compound `CC[C@H]1OC(=O)[C@H](C)[C@@H](O[C@H]2C[C@@](C)(OC)C[C@@H](C)O2)[C@H](C)[C@@H](O[C@@H]2O[C@H](C)C[C@H](N(C)CC)[C@H]2O)[C@@]2(C)CC(C)=C(O2)[C@H](C)[C@@H](O)[C@H]1C` came in with an EC50 on Motilin receptor [1] of 4.2 nM. This compound showed an inhibition constant (Ki) at Motilin receptor [2] of 3.4 nM.
The compound `C[C@@H](NC(=O)C1C=CC2(CCNCC2)n2c(=O)n(Cc3ccc4c(c3)OCO4)c(=O)n21)C(N)=O` (stereo partly specified) had an EC50 at Motilin receptor [1] above 10000 nM.
The same measure, in the same setting: under `NC(=O)[C@@H](Cc1ccccc1)NC(=O)C1C=CC2(CCNCC2)n2c(=O)n(Cc3ccc4c(c3)OCO4)c(=O)n21` (stereo partly specified) stands 4200 nM.
The compound `NC(=O)[C@H](CCc1ccccc1)NC(=O)C1C=CC2(CCNCC2)n2c(=O)n(Cc3ccc4c(c3)OCO4)c(=O)n21` (stereo in doubt; 13B) registered a half-maximal effective concentration (EC50) at Motilin receptor [1] above 10000 nM. At Motilin receptor [2], this compound registered a Ki above 10000 nM.
`NC(=O)[C@H](CCc1ccccc1)NC(=O)[C@H](CCc1ccccc1)NC(=O)C1C=CC2(CCNCC2)n2c(=O)n(Cc3ccc4c(c3)OCO4)c(=O)n21` (stereo partly specified) displayed an EC50 on Motilin receptor [1] of 0.22 nM. This compound also came in with a Ki at Motilin receptor [2] of 2 nM.
The corresponding values for `NC(=O)[C@@H](CCc1ccccc1)NC(=O)C1C=CC2(CCNCC2)n2c(=O)n(Cc3ccc4c(c3)OCO4)c(=O)n21` (stereo partly specified) are above 10000 nM and above 10000 nM.
Regarding `NC(=O)[C@H](CCc1ccccc1)NC(=O)[C@H](CCc1ccccc1)NC(=O)C1CCC2(CCNCC2)n2c(=O)n(Cc3ccc4c(c3)OCO4)c(=O)n21` (stereo in doubt; 11A), at Motilin receptor [1], the EC50 was determined as 0.047 nM. For the same compound, on Motilin receptor [2], the inhibitory constant (Ki) is 0.7 nM.
At Motilin receptor [1], `NC(=O)[C@H](CCc1ccccc1)NC(=O)C1C=CC2(CCNCC2)n2c(=O)n(Cc3ccc4c(c3)OCO4)c(=O)n21` (stereo in doubt; 1B) registered an EC50 of 560 nM. The compound further showed a Ki on Motilin receptor [2] of 4100 nM.
Take `NC(=O)[C@H](CCc1ccccc1)NC(=O)[C@H](CCc1ccccc1)NC(=O)C1CCC2(CCNCC2)n2c(=O)n(Cc3ccc4c(c3)OCO4)c(=O)n21` (stereo in doubt; 11): the EC50 on Motilin receptor [1] stood at 0.35 nM. The compound further showed a Ki at Motilin receptor [2] of 1 nM.
For `NC(=O)[C@H](CCc1ccccc1)NC(=O)C1C=CC2(CCNCC2)n2c(=O)n(Cc3ccc4c(c3)OCO4)c(=O)n21` (stereo in doubt; 1A), in that order: above 10000 nM and 5800 nM.

In general, EC50 refers to the concentration at which the effect is half-maximal. By Ki is commonly meant the equilibrium dissociation constant of an inhibitor or competing ligand from its target. High values mean weaker binding, low ones tighter binding.

The values above are taken from ChEMBL document CHEMBL1149119, “Discovery of a potent and novel motilin agonist” (J Med Chem, 2004).
